{"source": "patent US11439626B2", "about": "(Icahn School of Medicine at Mount Sinai, priority 2019, dated 2022)", "origin": "cited, not measured here", "key": {"[1]": {"details": "for % Abs: 100 mg dose"}, "[2]": {"test_system": "patients with traumatic spinal cord injuries", "details": "cervical injuries, 90 days post-injury"}, "[3]": {"assay": "not given", "remark": "listed apart in the source"}}, "note": "Read-outs that look alike come from different tables or passages of the source.", "data": [{"smiles": "Nc1nc2ccc(OC(F)(F)F)cc2s1", "note": "[riluzole, 2-Amino-6-(trifluoromethoxy)benzothiazole]", "values": [{"measurement": "Cmin", "setting": "[1]; 100 mg BID treatment arm, reported by Le Liboux et al.", "value": "~40", "unit": "ng/mL"}, {"measurement": "% Abs", "setting": "[1]; Fasted (observed)", "value": 100, "unit": "%"}, {"measurement": "% Abs", "setting": "[1]; Fed (observed)", "value": 80, "unit": "%"}, {"measurement": "motor outcomes", "setting": "[2]", "value": "improved motor outcomes"}, {"measurement": "dose recovered in the urine", "setting": "human, in vivo", "value": 90, "unit": "%"}, {"measurement": "dose recovered in the urine as glucuronides", "setting": "human, in vivo", "value": 85, "unit": "%"}, {"measurement": "dose recovered in the urine as unchanged riluzole", "setting": "human, in vivo", "value": 2, "unit": "%"}, {"measurement": "fecal excretion of administered dose", "setting": "human, in vivo", "value": 5, "unit": "%"}, {"measurement": "accumulation", "setting": "repeated twice daily dosing", "value": "approximately 2 fold"}, {"measurement": "trough concentrations", "setting": "[3]; 50 mg twice daily, non-smoking males, predicted profile (Bruno et al.)", "value": "~0.03", "unit": "µg/mL"}, {"measurement": "Proportional error", "setting": "[3]; error model parameter (SIGMA)", "value": 0.0697}, {"measurement": "V/F Inter-occasion variability", "setting": "[3]; variability parameter (ETA)", "value": 0.111}]}]}
